Source: ChEMBL document CHEMBL3751811, “The discovery of a novel antibiotic for the treatment of Clostridium difficile infections: a story of an effective academic-industrial partnership” (Medchemcomm, 2015)
Values after ≈ are worked out from the molar mass of the structure shown.

Key:
[1] = Inhibition of Escherichia coli topoisomerase 4-mediated DNA decatenation activity
[2] = molecular target: DNA gyrase (Staphylococcus aureus, UniProt P0A0K8+P20831); assay: Inhibition of Staphylococcus aureus DNA gyrase assessed as reduction in enzyme-catalyzed supercoiling of relaxed circular pBR322 DNA incubated for 30 mins by agarose gel electrophoresis; format: protein-complex assay
Chain of DNA gyrase (P0A0K8 whole entry): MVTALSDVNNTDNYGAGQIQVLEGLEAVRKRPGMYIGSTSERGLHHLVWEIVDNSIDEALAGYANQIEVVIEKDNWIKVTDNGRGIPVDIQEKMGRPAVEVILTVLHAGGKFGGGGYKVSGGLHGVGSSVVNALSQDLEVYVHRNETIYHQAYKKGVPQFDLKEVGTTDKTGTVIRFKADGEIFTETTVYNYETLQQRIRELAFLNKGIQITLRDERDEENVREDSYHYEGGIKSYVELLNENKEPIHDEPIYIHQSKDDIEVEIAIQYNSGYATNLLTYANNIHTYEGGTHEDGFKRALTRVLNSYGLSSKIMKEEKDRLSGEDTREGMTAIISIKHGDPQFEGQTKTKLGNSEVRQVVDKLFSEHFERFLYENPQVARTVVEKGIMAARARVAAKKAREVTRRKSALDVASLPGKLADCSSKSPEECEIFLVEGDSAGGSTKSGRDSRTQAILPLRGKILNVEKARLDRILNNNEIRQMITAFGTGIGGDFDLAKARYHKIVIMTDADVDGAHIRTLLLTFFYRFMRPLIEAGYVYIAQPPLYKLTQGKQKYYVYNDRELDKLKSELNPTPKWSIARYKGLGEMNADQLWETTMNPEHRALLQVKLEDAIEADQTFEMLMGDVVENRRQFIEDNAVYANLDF
Chain of DNA gyrase (P20831 whole entry): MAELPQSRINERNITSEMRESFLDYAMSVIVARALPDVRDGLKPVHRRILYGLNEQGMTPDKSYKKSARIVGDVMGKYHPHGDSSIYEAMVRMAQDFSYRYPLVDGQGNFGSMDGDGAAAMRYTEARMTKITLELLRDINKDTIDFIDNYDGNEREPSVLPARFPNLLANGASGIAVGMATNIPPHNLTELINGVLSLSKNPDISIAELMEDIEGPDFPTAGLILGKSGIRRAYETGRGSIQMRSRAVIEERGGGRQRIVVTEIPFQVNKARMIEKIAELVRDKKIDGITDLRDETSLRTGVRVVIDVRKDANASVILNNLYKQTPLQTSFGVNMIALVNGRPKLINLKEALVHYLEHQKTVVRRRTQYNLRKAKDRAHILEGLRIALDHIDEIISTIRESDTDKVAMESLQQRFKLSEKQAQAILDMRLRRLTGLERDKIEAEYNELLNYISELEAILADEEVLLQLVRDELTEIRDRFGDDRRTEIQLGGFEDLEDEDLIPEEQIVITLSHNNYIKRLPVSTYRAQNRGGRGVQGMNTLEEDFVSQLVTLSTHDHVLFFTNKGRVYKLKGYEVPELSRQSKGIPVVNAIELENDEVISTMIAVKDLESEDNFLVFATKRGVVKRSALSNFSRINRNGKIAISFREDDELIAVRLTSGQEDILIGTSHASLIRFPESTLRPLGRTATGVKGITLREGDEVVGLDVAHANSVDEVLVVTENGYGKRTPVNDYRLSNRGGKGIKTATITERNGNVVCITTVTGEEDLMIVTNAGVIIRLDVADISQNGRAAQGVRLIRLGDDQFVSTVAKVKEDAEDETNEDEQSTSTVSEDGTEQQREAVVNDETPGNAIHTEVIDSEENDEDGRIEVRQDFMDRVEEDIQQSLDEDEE

[3] = tested on: Clostridioides difficile; assay: Antibacterial activity against Clostridium difficile R20291 assessed as growth inhibition; format: functional
[4] = tested on: Escherichia coli; assay: Antibacterial activity against Escherichia coli NCTC 10418 assessed as growth inhibition; format: functional
[5] = molecular target: DNA gyrase subunit A/DNA gyrase subunit B (Mycobacterium tuberculosis (strain ATCC 25618 / H37Rv), UniProt P9WG45+P9WG47); assay: Inhibition of Mycobacterium tuberculosis H37Rv DNA gyrase supercoiling activity
Chain of DNA gyrase subunit A/DNA gyrase subunit B (P9WG45 whole entry): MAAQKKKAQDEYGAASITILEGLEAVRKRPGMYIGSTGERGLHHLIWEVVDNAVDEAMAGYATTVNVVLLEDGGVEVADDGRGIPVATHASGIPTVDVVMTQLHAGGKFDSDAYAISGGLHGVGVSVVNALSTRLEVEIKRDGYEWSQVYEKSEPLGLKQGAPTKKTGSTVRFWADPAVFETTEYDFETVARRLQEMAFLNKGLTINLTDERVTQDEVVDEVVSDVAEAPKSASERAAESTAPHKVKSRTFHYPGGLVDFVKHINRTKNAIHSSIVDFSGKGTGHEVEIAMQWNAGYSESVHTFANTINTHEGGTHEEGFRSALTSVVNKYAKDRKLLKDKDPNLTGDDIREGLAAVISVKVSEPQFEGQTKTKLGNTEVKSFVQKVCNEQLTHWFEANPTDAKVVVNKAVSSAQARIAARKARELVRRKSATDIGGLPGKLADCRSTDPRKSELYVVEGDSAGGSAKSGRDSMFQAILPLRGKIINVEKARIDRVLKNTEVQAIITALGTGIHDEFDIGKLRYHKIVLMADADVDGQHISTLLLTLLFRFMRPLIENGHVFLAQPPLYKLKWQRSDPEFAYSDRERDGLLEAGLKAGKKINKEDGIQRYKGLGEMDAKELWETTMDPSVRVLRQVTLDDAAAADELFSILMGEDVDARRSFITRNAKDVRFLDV
Chain of DNA gyrase subunit A/DNA gyrase subunit B (P9WG47 whole entry): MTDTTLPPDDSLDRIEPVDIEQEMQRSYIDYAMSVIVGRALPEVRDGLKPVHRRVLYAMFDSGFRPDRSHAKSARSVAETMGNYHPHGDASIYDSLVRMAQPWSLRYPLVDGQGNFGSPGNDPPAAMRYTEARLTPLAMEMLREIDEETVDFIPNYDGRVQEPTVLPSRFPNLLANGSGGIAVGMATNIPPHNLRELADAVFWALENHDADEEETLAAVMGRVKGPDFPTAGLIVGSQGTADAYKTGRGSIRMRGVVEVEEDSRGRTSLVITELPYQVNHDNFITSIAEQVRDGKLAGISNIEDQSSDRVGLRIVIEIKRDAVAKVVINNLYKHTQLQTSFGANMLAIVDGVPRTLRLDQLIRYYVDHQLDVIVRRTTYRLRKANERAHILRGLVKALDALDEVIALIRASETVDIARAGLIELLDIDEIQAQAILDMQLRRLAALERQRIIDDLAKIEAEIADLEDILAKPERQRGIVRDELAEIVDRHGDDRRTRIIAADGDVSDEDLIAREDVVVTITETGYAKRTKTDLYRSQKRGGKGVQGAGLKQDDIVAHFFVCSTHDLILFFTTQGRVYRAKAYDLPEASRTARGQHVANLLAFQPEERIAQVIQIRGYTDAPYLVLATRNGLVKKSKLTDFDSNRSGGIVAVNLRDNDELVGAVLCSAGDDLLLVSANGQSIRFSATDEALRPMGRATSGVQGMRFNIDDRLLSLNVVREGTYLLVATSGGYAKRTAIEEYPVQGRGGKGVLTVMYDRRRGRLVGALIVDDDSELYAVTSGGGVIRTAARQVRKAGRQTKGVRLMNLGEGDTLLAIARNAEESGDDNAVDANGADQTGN

[6] = tested on: Staphylococcus aureus; assay: Antibacterial activity against clinical isolates of Staphylococcus aureus EMRSA-16 assessed as growth inhibition after 20 hrs by broth dilution method; format: functional; details: EMRSA-16, 20 h
[7] = tested on: Mycobacterium tuberculosis; assay: Antibacterial activity against Mycobacterium tuberculosis H37Rv logarithmic phase forms by spot culture growth inhibition assay; format: functional
[8] = tested on: Escherichia coli; assay: Antibacterial activity against Escherichia coli MC 1061 assessed as growth inhibition; format: functional
[9] = Inhibition of Escherichia coli DNA gyrase supercoiling activity
[10] = tested on: Clostridioides difficile; assay: Antibacterial activity against Clostridium difficile CD 630 assessed as growth inhibition; format: functional
[11] = Inhibition of Staphylococcus aureus topoisomerase 4 assessed as inhibition of decatenation of catenated kinetoplast DNA after 30 mins by agarose gel electrophoresis
[12] = Inhibition of Escherichia coli topoisomerase 4-mediated DNA relaxation activity
[13] = tested on: Staphylococcus aureus; assay: Antibacterial activity against Staphylococcus aureus ATCC 29213 assessed as growth inhibition after 20 hrs by broth dilution method; format: functional; details: ATCC 29213, 20 h
[14] = tested on: Mycobacterium tuberculosis; assay: Antibacterial activity against Mycobacterium tuberculosis H37Rv hypoxia-induced latency form by spot culture growth inhibition assay; format: functional
[15] = Inhibition of Clostridium difficile DNA gyrase supercoiling activity; parameters: species or system Clostridioides difficile

SMILES	IC50 [1] [µM]	IC50 [2] [µM]	MIC90 [3] [µg/mL]	MIC90 [4] [µg/mL]	IC50 [5] [µM]	MIC90 [6] [µg/mL]	MIC90 [7] [µg/mL]	MIC90 [8] [µg/mL]	IC50 [9] [µM]	MIC90 [10] [µg/mL]	IC50 [11] [µM]	IC50 [12] [µM]	MIC90 [13] [µg/mL]	MIC90 [14] [µg/mL]	IC50 [15] [µM]
COc1cccc(-c2nc3ccc(-c4ccc5nc(-c6cccc(OC)c6)[nH]c5c4)cc3[nH]2)c1	> 50	8.8	> 32	> 64	29	> 128	> 16	> 64	> 50	> 32	70.3	> 50	> 128		
Cc1ccc(-c2nc3ccc(-c4ccc5nc(-c6ccc(C)cc6)[nH]c5c4)cc3[nH]2)cc1	> 50	5.6	0.06 (≈ 0.145 µM)	> 64	2	0.06 (≈ 0.145 µM)	1 (≈ 2.41 µM)	0.06 (≈ 0.145 µM)	> 50	0.06 (≈ 0.145 µM)	50.9	> 50	0.03 (≈ 0.0724 µM)	2 (≈ 4.82 µM)	
Nc1ccc(-c2nc3cc(-c4ccc5[nH]c(-c6ccc(N)cc6)nc5c4)ccc3[nH]2)cc1	8	0.3	0.125 (≈ 0.3 µM)	> 64	11.3	0.5 (≈ 1.2 µM)	16 (≈ 38.4 µM)	0.06 (≈ 0.144 µM)	> 50	0.03 (≈ 0.072 µM)	15.5	6.5	0.125 (≈ 0.3 µM)	8 (≈ 19.2 µM)	8.4
c1cc(-c2nc3cc(-c4ccc5[nH]c(-c6ccncc6)nc5c4)ccc3[nH]2)ccn1 [RIDINILAZOLE]	> 50	> 50	0.125 (≈ 0.322 µM)	> 16		> 128			> 50	0.06 (≈ 0.154 µM)	> 50		> 128		> 50
